Assay results published in US20190125753A1, “COMPOUNDS AND METHODS FOR INCREASING HEMATOPOIESIS” (University of Southern California, priority 2016, published 2019).

Key:
[1] = target: T1, CBP/γ-catenin interaction (Mus musculus, UniProt P45481); test: Co-IP of bone marrow Sca-1posit cells from treated mice (anti-CBP); assay type: in vivo; details: YH250 2 mg/kg subcutaneously, 24 hrs
T1 construct: bone marrow Sca-1posit cells were isolated with Anti-Sca-1 microbeads; from tissue; host or cells: bone marrow Sca-1 positive cells of female C57/Black mice dosed in vivo
Experimental: (§1) YH250 was used in this study. Female C57/Black mice were administrated with either DMSO (solvent control) or YH250 (2 mg/kg) subcutaneously. 24 hrs later, bone marrow Sca-1posit cells were isolated with Anti-Sca-1 microbeads (Miltenyi Biotec, Cat#130-092-529) for co-immunoprecipitation (FIG. 4A). Cells were then lysed and incubated with either anti-CBP (A22) or anti-p300 (C20) antibodies. Then, the immunoprecipitation complex were electrophoresed and detected with antibodies to either β-catenin or γ-catenin. […] This confirms that YH250 directly disrupts the p300/catenin interaction thereby enhancing the CBP/catenin interaction in HSPCs.

[2] = tested on: Wnt/β-catenin pathway; test: SuperTOPFLASH (STF1.1 Hek-293) Wnt/β-catenin-driven luciferase reporter; assay type: cell-based
Experimental: A. Wnt/β-Catenin Activity: The Initial SuperTOPFLASH Screen.
(§2) Hek293 cells were stably transfected with plasmid that contains multiple TCF/LEF fragments in front of Luciferase gene. Wnt/β-catenin activity was determined from luciferase expression levels. […] Briefly, stably transfected Hek-293, STFI.1 (Wnt/β-catenin-driven luciferase) and Survivin-Hek-293 (1 Kb Human survivin promoter-driven luciferase) cells were maintained in DMEM, 10% FBS, Pen/Strep with 400 μg/mL G418 or 2 μg/mL puromycin, respectively. To check the activity of ICG-001, YH249, and YH250, the cells were split into white-opaque 96-well plates at 10,000 cells per well and allowed to attach overnight. For SuperTOPLASH, the inhibitors were added to the cells and pre-incubated for 1 hour prior to stimulation with 10 mM Li Cl for 24 hours. Luciferase activity was read using BrightGlo (Promnega) luciferase substrate. For survivin/luc, the inhibitors were added to the cells and incubated for 24 hours prior to readout. To calculate IC5o values, the resulting curve was fitted to a four-parameter logistic model (4PL) using GraphPad Prism 5 software.
(§3) An endogenous human survivin 1 kb promoter was inserted before a luciferase gene. […] R1 and R2 were diversified in this study. Percent inhibition of luciferase activity was calculated according to the following equations; % inhibition of STF 1.1 reporter activity=(I−RLU(10 mM LiCl) treated/RLU(10 omM LiCl) vehicle×control)100, % inhibition of Survivin reporter activity=(1−RLUtreated/RLU vehicle control)×100. Error bars indicate the mean±SE of 3 separate experiments. Selectivity (FIG. 2H) was calculated by IC50 value for Survivin-Hek-293/IC50 value for STF 1.1.

[3] = target: T2, p300/γ-catenin interaction (Mus musculus, UniProt B2RWS6); test: Co-IP of bone marrow Sca-1posit cells from treated mice (anti-p300); assay type: in vivo; details: YH250 2 mg/kg subcutaneously, 24 hrs
T2 construct: bone marrow Sca-1posit cells were isolated with Anti-Sca-1 microbeads; from tissue; host or cells: bone marrow Sca-1 positive cells of female C57/Black mice dosed in vivo
T2 sequence (B2RWS6 2-2412 limits assumed): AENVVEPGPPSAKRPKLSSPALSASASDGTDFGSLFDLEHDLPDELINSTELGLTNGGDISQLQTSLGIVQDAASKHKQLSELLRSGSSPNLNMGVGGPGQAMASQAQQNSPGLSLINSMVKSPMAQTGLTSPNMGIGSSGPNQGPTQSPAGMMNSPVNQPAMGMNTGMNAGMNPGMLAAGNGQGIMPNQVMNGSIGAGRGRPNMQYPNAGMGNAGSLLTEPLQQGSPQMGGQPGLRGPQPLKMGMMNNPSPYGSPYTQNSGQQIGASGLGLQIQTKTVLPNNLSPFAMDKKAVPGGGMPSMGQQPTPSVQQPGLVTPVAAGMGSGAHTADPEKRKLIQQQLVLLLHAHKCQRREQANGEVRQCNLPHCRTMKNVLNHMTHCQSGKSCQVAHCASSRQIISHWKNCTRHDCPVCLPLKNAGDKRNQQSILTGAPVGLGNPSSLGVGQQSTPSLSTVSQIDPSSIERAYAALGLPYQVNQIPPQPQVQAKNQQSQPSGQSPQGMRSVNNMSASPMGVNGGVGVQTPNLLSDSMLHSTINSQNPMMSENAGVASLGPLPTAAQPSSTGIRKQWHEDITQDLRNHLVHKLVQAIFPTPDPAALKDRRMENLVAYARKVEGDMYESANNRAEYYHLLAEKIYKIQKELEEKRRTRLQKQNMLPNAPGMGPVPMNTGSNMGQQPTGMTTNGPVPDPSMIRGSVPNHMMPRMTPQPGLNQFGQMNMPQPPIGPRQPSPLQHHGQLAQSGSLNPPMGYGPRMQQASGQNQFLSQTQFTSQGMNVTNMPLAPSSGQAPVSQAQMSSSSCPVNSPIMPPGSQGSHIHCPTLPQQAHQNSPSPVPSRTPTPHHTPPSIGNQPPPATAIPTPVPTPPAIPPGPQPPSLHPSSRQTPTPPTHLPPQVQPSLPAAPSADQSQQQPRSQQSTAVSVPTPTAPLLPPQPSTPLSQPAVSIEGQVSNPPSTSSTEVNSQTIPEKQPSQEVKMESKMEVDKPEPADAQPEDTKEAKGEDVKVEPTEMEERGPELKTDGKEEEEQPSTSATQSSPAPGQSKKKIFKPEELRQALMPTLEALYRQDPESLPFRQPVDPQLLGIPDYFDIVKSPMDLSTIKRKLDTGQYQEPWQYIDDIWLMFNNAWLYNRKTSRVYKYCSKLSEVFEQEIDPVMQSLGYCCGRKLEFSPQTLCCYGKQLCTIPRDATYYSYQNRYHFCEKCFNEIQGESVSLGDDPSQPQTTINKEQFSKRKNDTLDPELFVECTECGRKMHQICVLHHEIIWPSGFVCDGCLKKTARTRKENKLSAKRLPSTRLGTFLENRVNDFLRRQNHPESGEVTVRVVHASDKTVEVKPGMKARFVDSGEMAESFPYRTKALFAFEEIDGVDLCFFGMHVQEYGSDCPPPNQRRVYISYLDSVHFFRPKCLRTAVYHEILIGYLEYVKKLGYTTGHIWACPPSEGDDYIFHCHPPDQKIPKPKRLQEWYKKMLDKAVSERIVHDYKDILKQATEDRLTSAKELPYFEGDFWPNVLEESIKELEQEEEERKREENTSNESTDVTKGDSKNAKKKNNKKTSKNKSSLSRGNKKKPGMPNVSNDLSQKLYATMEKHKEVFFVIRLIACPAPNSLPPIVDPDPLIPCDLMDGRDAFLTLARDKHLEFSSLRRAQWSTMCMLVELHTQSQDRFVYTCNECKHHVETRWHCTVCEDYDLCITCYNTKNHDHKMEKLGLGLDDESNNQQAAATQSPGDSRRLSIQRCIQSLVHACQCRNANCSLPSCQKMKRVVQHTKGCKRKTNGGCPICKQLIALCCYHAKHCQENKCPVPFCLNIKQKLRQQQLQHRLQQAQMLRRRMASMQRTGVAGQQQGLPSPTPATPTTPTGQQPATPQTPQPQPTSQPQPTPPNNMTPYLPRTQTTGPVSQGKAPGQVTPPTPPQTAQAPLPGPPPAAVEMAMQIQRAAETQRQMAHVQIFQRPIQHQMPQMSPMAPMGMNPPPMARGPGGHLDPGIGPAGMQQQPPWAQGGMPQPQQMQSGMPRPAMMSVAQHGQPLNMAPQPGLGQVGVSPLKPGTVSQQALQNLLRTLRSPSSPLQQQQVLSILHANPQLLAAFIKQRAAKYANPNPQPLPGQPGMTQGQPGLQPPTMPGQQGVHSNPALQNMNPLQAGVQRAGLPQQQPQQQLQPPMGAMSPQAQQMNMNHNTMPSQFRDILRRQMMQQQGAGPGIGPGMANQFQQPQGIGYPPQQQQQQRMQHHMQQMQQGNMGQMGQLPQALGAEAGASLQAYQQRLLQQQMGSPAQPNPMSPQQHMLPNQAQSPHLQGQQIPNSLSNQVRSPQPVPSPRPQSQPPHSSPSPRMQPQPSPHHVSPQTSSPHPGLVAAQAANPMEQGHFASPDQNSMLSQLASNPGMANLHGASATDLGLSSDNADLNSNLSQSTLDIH
Experimental: as §1

[4] = tested on: Human survivin promoter; test: Survivin/luciferase reporter (Survivin-Hek-293); assay type: cell-based
Experimental: as §2
B. Survivin Expression Level: The Secondary Screen.
as §3

[5] = tested on: R1 mESCs; details: Wnt dependent manner; cited from earlier work
[6] = target: T3, p300 (Mus musculus, UniProt B2RWS6); test: Bio-249 affinity pull-down from C2Cl2 lysates, p300 immunoblot; assay type: binding
T3 construct: endogenous in cells; host or cells: lysates of mouse C2C12 myoblasts
T3 sequence (B2RWS6 whole entry): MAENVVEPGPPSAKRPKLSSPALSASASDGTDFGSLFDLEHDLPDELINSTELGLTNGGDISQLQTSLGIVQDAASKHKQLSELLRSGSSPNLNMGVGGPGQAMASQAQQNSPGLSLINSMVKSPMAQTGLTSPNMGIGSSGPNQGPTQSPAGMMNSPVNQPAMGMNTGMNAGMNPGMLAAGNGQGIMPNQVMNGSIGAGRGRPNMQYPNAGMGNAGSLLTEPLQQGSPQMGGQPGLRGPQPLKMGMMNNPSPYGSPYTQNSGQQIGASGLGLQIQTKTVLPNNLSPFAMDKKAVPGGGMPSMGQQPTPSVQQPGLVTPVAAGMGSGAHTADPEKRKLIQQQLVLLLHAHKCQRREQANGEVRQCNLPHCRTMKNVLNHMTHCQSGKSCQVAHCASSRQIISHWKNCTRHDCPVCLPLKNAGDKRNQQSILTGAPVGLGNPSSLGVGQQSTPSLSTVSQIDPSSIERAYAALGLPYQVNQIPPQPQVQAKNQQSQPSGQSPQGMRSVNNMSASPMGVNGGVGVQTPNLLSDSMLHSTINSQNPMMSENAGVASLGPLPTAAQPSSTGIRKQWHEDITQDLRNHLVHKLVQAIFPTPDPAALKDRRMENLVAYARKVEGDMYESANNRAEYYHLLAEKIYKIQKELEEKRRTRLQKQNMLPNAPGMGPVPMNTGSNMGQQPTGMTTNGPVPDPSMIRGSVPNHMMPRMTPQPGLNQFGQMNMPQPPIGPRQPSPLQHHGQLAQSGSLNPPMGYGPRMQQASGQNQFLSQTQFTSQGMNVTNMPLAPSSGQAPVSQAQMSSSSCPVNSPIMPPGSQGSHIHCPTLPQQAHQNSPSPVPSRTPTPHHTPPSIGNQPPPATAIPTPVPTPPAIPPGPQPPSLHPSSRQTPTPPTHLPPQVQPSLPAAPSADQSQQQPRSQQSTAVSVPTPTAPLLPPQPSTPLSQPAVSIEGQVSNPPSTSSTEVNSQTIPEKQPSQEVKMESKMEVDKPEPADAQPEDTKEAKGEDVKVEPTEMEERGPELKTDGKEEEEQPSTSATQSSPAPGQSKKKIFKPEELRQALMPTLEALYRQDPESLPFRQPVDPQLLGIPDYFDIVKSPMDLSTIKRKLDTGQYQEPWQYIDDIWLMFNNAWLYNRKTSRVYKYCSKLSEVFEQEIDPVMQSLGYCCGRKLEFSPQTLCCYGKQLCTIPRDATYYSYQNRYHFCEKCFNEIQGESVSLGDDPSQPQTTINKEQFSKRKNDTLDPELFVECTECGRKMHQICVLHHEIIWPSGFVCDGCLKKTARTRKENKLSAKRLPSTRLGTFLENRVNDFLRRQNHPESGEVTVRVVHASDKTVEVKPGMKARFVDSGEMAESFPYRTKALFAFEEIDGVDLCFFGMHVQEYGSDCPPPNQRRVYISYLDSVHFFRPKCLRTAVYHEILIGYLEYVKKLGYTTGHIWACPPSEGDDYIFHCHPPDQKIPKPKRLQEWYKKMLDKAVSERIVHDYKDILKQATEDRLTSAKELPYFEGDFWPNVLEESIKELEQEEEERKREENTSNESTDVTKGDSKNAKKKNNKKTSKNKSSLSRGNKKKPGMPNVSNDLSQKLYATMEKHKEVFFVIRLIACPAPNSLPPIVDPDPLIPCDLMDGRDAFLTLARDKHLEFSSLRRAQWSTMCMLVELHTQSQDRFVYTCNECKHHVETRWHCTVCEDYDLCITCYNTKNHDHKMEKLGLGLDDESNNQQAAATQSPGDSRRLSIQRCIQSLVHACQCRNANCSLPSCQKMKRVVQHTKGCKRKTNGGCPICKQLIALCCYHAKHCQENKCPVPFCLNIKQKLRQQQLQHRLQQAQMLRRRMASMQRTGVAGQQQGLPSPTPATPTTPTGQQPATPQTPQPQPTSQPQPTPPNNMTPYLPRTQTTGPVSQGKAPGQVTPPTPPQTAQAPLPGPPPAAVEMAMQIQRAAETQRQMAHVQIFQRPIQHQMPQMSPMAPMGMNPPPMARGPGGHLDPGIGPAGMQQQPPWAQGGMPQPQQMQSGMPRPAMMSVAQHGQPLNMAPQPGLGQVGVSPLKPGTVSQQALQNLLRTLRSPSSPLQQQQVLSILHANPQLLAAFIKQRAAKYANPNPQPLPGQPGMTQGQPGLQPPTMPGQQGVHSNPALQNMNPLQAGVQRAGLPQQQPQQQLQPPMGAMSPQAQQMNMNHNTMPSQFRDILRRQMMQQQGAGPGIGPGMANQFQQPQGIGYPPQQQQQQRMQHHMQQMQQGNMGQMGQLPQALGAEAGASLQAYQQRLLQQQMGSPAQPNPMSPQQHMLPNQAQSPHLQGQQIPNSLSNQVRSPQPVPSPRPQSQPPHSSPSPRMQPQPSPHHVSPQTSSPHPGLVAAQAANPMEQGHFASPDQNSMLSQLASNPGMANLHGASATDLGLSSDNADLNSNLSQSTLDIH
Experimental: YH249 and YH250 were selected from the compounds described herein for further testing. Co-immunoprecipitation (CO-IP) was performed with mouse myoblast C2Cl2 cells. Cells were treated with DMSO (control), or YH249, or YH250 for 24 hours. Cell lyses were pulled down with anti-p300 or anti-CBP antibodies, run on gel and probed with anti-β-catenin antibody. […] A biotinylated version of YH249 (Bio-249) was prepared via the propargyl amide variant. Using a biotin with a linker and a terminal azide residue, we were able to couple the biotin to the YH249 core via a 3+2 cyclization reaction to provide Bio-249. Bio-249 was incubated with lysates from C2Cl2 myoblasts, either in the presence or absence of competitor YH249 for 4 h at 4° C. and then bound to streptavidin agarose beads. After extensive washing the bound proteins were eluted and run out on an […].

[7] = tested on: H9 human embryonic stem cells; test: Maintenance of human ES cell pluripotency, 5 days; assay type: cell-based; details: 25 ng/ml Wnt3a; 500 nM YH249 or 200 nM YH250, 5 days, without FGF and TGF
Experimental: (§4) We also determined that IQ-1 indirectly, via binding to the PR72/130 subunit of PP2A, inhibited the p300/β-catenin interaction (Id). Therefore, we anticipated that YH249/250 should also maintain mESC pluripotency in a Wnt dependent manner. To test his, R1 mESCs were cultured under feeder free conditions in the presence or absence of YH249/250 for 5 days. […] Pluripotency markers, Oct4, Nanog, Sox2, SSEA-1 and ALP, were all expressed in the cells treated with Wnt3a and YH250 (FIG. 28b). Moreover, Wnt3a could be replaced with the selective GSK-3 inhibitor CHIR99021, which activates the Wnt signaling pathway (FIG. 28a, lower panel). […] In the event, similarly to ID-8, the combination of Wnt3a and YH249/250 provided morphologically undifferentiated colonies of H9 human embryonic stem cells (hESCs) without FGF and TGF (FIG. 28c). hPSC markers were detected by ALP staining and immunofluorescence (FIG. 28d). In addition to H9 cells, two other hESC lines and a human induced pluripotent stem (iPS) cell line could be also maintained undifferentiated morphology utilizing the same conditions (not shown).
Specifically, FIG. 28A-28D, show maintenance of ESC's pluripotency by YH249 and YH250. […] 28A, Typical colony morphologies of RI mouse ES cells cultured 5 days in [upper panel] […]

[8] = tested on: bone marrow cells; test: Brief (4 h) incubation of bone marrow cells, 14 days culture, FACS; assay type: cell-based, mouse; details: 0.5 μM 4 hrs, 14 days culture
Experimental: Bone marrow cells were treated with DMSO or YH250 (0.5 μM) for 4 hours, then the compound was removed and the cells cultured in QBSF-58 medium for 14 days with 10 ng/ml of SCF, TPO, Flt3 ligand, and IL-6. At the end of culture, cells were recovered and analyzed for LSK cells with FACS.
In a further study, female CD45.1 mice bone marrow cells were incubated with DMSO, or YH249 (0.5 μM) or YH250 (0.5 μM) for 4 hrs in QBSF-58 media, then 2×10^4 cells were plated in QBSF-58 medium containing SCF, TPO, Flt3 and IL-6 (10 ng/ml for each) for 14 days. Cells were then recovered from plate for FACS analysis. […] Correspondingly, there are higher LSK cells (52%, 60% and 70% respectively for DMSO, YH249 and YH250). From every 10,000 analyzed cells, LSKCD34negt cell numbers are 437, 663 and 2051 for DMSO, YH249 and YH250 treated cells, respectively.

[9] = tested on: mouse bone marrow cells; test: Colony-forming cell (CFC) assay after 4 h in vitro treatment; assay type: cell-based
Experimental: Brief (less than 24 hours) treatment of HSC with YH250 or DMSO was conducted before the CFC or CFU-S12 assay. Mouse bone marrow cells were treated with DMSO (solvent control) or YH250 for 4 hours in serum free HSC expansion medium before the cells were recovered for a colony forming assay. 7-8 Days after cell plating in methylcellulose medium (Stemcell Technologies, Methocult GF M3434, Cat#3434), colonies were scored, and the cells from each plate were recovered and counted.
In fact, they also show similar biological functions with respect to HSPC.

[10] = tested on: R1 mESCs; test: Maintenance of mouse ES cell pluripotency, feeder free, 5 days; assay type: cell-based; details: with 50 ng/ml Wnt3a or 3 μM CHIR99021; 500 nM YH249 or 200 nM YH250, 5 days
Experimental: as §4
Specifically, FIG. 28A-28D, show maintenance of ESC's pluripotency by YH249 and YH250. […] 28A, Typical colony morphologies of RI mouse ES cells cultured 5 days in [upper panel] 3 μM CHIR99021 and 1 μM PD0325901 (2i) medium, basal medium (2i medium without CHIR99021 and PD0325901), basal medium supplemented with 50 ng/ml Wnt3a alone, [middle panel] combination of 50 ng/ml Wnt3a and 2 μM IQ-1, 500 nM YH249 or 200 nM YH250, [lower panel] 3 μM of CHIR99021 alone, and combination of 3 μM CHIR99021 and 500 nM YH249 or 200 nM YH250. […] The blue signal (Wnt3a panels) represents DAPI nuclear staining. Bars indicate […]. […] The blue signal (Wnt3a panels) represents DAP1 nuclear staining. Scale bars indicate 100 am.

[11] = 4 hours incubation then CFC assay

For `O=C1[C@H](Cc2ccc(O)cc2)N2C(=O)CCN(C(=O)NCc3ccccc3)[C@H]2CN1Cc1cccc2ccccc12` [ICG-001, reference compound], the CBP/γ-catenin interaction [1] was “inhibits CBP/γ-catenin interaction”, the “luciferase activity (Wnt/β-catenin activity)” value ([2]; Hek293 TCF/LEF luciferase) was “luciferase activity was decreased” and the p300/γ-catenin interaction [3] was “promotes p300/γ-catenin interaction”. The “survivin expression level in survivin-reporter system” value [4] was “significantly decreased in a dose dependent manner”.

For `CC(=O)c1ccc(NN=C(C(N)=O)C2=NC(C)(C)Cc3ccccc32)cc1` [IQ-1], the “mESC pluripotency (previously reported)” value [5] is given as “maintain long term mESC pluripotency”.

In the case of `COc1cccc(CNC(=O)N2C3CN(Cc4cccc(Cl)c4N(C)C)C(=O)[C@H](Cc4ccc(O)cc4)N3C(=O)CN2C)c1OC` (some centres unmarked) [YH249], the “binding to p300 (affinity precipitation, p300 immunoblot)” value ([6]; C2Cl2 lysates, 4 h at 4° C., streptavidin agarose beads) is reported as “directly binding to p300”, the “competition of the band precipitated by Bio-249” value ([6]; free competitor) is reported as “strongly competed out” and the hESC pluripotency [7] is reported as “maintain pluripotency”. For the same compound, the lineage negative cell ([8]; DMSO 9%) was 17%, the LSK cells ([8]; DMSO 52%) was 60% and the LSKCD34negt cell numbers ([8]; from every 10,000 analyzed cells, DMSO 437) was 663. For the same compound, the IC50 ([2]; Homo sapiens, HEK293, STF1.1 Hek-293, 1 hour pre-incubation, 10 mM LiCl 24 hours) was < 0.1 µM, the IC50 ([4]; Homo sapiens, Survivin-Hek-293, 24 hours, read-out: survivin/luciferase reporter: did not inhibit up to) was > 20 µM and the “CELL#/plate” value [9, 11] was 5.2 × 10^5. For the same compound, the “CFC#/plate” value [9, 11] was 27, the “cell number in each plate vs DMSO” value ([9]; 4 hours treatment, cells recovered from plate) was “higher cell number in each plate” and the mESC pluripotency [10] was “maintain pluripotency”.
